In patent US7101868B2, “Substituted arylamine derivatives and methods of use” (Amgen Inc., priority 2001, dated 2006) one finds IC50 data, which are given here for 29 compounds.

pIC50: −log10 of the molar value. Some results are limits rather than exact numbers.

This assay has as its system VEGF-stimulated HUVEC proliferation (Human Umbilical Vein Endothelial cells). As to the kind of experiment: HUVEC Proliferation Assay. In kind it is cell-based. As to conditions: VEGF 50 ng/mL final, 72 h incubation, CyQuant fluorescent dye, read-out: inhibited VEGF-stimulated HUVEC proliferation at a level (IC50). The protocol: Human Umbilical Vein Endothelial cells are purchased from Clonetics, Inc., as cryopreserved cells harvested from a pool of donors. These cells, at passage 1, are thawed and expanded in EBM-2 complete medium, until passage 2 or 3. The cells are trypsinized, washed in DMEM+10% FBS+antibiotics, and spun at 1000 rpm for 10 min. Prior to centrifugation of the cells, a small amount is collected for a cell count. After centrifugation, the medium is discarded, and the cells are resuspended in the appropriate volume of DMEM+10% FBS+antibiotics to achieve a concentration of 3×10^5 cells/mL. Another cell count is performed to confirm the cell concentration. The cells are diluted to 3×10^4 cells/mL in DMEM+10% FBS+antibiotics, and 100 μL of cells are added to a 96-well plate. The cells are incubated at 37° C. for 22 h.
Prior to the completion of the incubation period, compound dilutions are prepared. Five-point, five-fold serial dilutions are prepared in DMSO, at concentrations 400-fold greater than the final concentrations desired. 2.5 μL of each compound dilution are diluted further in a total of 1 mL DMEM+10% FBS+antibiotics (400× dilution). Medium containing 0.25% DMSO is also prepared for the 0 μM compound sample. At the 22-hour timepoint, the medium is removed from the cells, and 100 μL of each compound dilution is added. The cells are incubated at 37° C. for 2-3 h.
During the compound pre-incubation period, the growth factors are diluted to the appropriate concentrations. Solutions of DMEM+10% FBS+antibiotics, containing either VEGF or bFGF at the following concentrations: 50, 10, 2, 0.4, 0.08, and 0 ng/mL are prepared. For the compound-treated cells, solutions of VEGF at 550 ng/mL or bFGF at 220 ng/mL for 50 ng/mL or 20 ng/mL final concentrations, respectively, are prepared since 10 μL of each will be added to the cells (110 μL final volume). At the appropriate time after adding the compounds, the growth factors are added. VEGF is added to one set of plates, while bFGF is added to another set of plates. For the growth factor control curves, the media on wells B4-G6 of plates 1 and 2 are replaced with media containing VEGF or bFGF at the varying concentrations (50-0 ng/mL). The cells are incubated at 37° C. for an additional 72 h.
At the completion of the 72 h incubation period, the medium is removed, and the cells are washed twice with PBS. After the second wash with PBS, the plates are tapped gently to remove excess PBS, and the cells are placed at −70° C. for at least 30 min. The cells are thawed and analyzed using the CyQuant fluorescent dye (Molecular Probes C-7026), following the manufacturer's recommendations. The plates are read on a Victor/Wallac 1420 workstation at 485 nm/530 nm (excitation/emission). Raw data are collected and analyzed using a 4-parameter fit equation in XLFit. IC50 values are then determined.

As for `CCC(C)c1ccc(NC(=O)c2cccnc2NCc2ccc(F)cc2)cc1` (centres unmarked) [Example 16, N-(4-sec-butylphenyl)-2-[(4-fluorobenzyl)amino]nicotinamide], the pIC50 is greater than 7.30. As for `CC(C)(C)c1ccc(NC(=O)c2cccnc2NCc2ccc(F)cc2)cc1` [Example 17, N-(4-tert-Butylphenyl)-2-[(4-fluorobenzyl)amino]nicotinamide], the pIC50 was greater than 7.30. Regarding `CC(C)c1ccc(NC(=O)c2cccnc2NCc2ccc(F)cc2)cc1` [Example 20, (2-{[(4-Fluorophenyl)methyl]amino}(3-pyridyl))-N-[4-(methylethyl)phenyl]carboxamide], the pIC50 was greater than 7.30. To `O=C(Nc1cccc(C(F)(F)F)c1)c1cccnc1NCc1ccc(F)cc1` [Example 21, (2-{[(4-Fluorophenyl)methyl]amino}(3-pyridyl))-N-[3-(trifluoromethyl)phenyl]carboxamide] belongs greater than 7.30; to `O=C(Nc1cccc(C(F)(F)F)c1)c1cccnc1NCc1ccc(Br)cc1` [Example 25, (2-{[(4-Bromophenyl)methyl]amino}(3-pyridyl))-N-[3-(trifluoromethyl)phenyl]carboxamide], greater than 7.30. Then `O=C(Nc1cccc(C(F)(F)F)c1)c1cccnc1NCc1ccc(Cl)cc1` [Example 26, (2-{[(4-Chlorophenyl)methyl]amino}(3-pyridyl))-N-[3-(trifluoromethyl)phenyl]carboxamide], with greater than 7.30.

In the case of `O=C(Nc1cccc(C(F)(F)F)c1)c1cccnc1NCc1ccc(F)cc1F` [Example 27, (2-{[(2,4-Difluorophenyl)methyl]amino}(3-pyridyl))-N-[3-(trifluoromethyl)phenyl]carboxamide], the pIC50 was greater than 7.30. In the case of `O=C(Nc1cccc(C(F)(F)F)c1)c1cccnc1NCc1ccc(F)c(F)c1` [Example 29, (2-{[(3,4-Difluorophenyl)methyl]amino}(3-pyridyl))-N-[3-(trifluoromethyl)phenyl]carboxamide], the pIC50 was greater than 7.30. As to `O=C(Nc1ccc(C(F)(F)F)cc1)c1cccnc1NCc1ccc(F)cc1` [Example 34, (2-{[(4-Fluorophenyl)methyl]amino}(3-pyridyl))-N-(4-(trifluoromethyl)phenyl]carboxamide], the pIC50 is greater than 7.30. As to `CN(C)CCCc1cc(NC(=O)c2cccnc2NCc2ccc(F)cc2)cc(C(F)(F)F)c1` [Example 35, N-{3-[3-(Dimethylamino)propyl]-5-(trifluoromethyl)phenyl}(2-{[(4-fluorophenyl)methyl]amino}(3-pyridyl))carboxamide], the pIC50 was greater than 7.30. Turning to `CN1CC=C(c2cc(NC(=O)c3cccnc3NCc3ccc(F)cc3)ccc2C(C)(C)C)CC1` [Example 39], the pIC50 is greater than 7.30.

`O=C(Nc1cccc(C(F)(F)F)c1)c1cccnc1NCc1ccc(F)c(C#CCN2CCOCC2)c1` [Example 40, [2-({[4-Fluoro-3-(3-morpholin-4-ylprop-1-ynyl)phenyl]methyl}amino)(3-pyridyl)]-N-[3-(trifluoromethyl)phenyl]carboxamide]: the pIC50 was greater than 7.30.

With `O=C(Nc1ccc(Oc2ccccc2)cc1)c1cccnc1NCc1ccc2c(c1)OCO2` [Example 41, {2-[(2H-Benzo[d]1,3-dioxol-5-ylmethyl)amino](3-pyridyl)}-N-(4-phenoxyphenyl)carboxamide], the pIC50 is greater than 7.30. Regarding `O=C(Nc1ccc(C(F)(F)F)c(OCCN2CCCC2)c1)c1cccnc1NCc1ccc(F)cc1` [Example 42, 2-(4-Fluoro-benzylamino)-N-[3-(2-pyrrolidin-1-yl-ethoxy)-4-trifluoromethyl-phenyl]-nicotinamide], the pIC50 was greater than 7.30. In the case of `CN1CCC(N2CC(C)(C)c3ccc(NC(=O)c4cccnc4NCc4ccc(F)cc4)cc32)CC1` [Example 45, N-[3,3-Dimethyl-1-(1-methyl-piperidin-4-yl)-2,3-dihydro-1H-indol-6-yl]-2-(4-fluoro-benzylamino)-nicotinamide], the pIC50 is greater than 7.30. Regarding `CN(C)CC(=O)N1CC(C)(C)c2ccc(NC(=O)c3cccnc3NCc3ccc(F)cc3)cc21` [Example 46, N-[1-(2-Dimethylamino-acetyl)-3,3-dimethyl-2,3-dihydro-1H-indol-6-yl]-2-(4-fluoro-benzylamino)-nicotinamide], the pIC50 is greater than 7.30. As for `CC(=O)N1CC(C)(C)Oc2ccc(NC(=O)c3cccnc3NCc3ccc(F)cc3)cc21` [Example 52, N-(4-Acetyl-2,2-dimethyl-3,4-dihydro-2H-benzo[1,4]oxazin-6-yl)-2-(4-fluoro-benzylamino)-nicotinamide], the pIC50 was greater than 7.30. Consider `O=C(Nc1ccc(C(F)(F)C(F)(F)F)c(OC[C@H]2CCCN2)c1)c1cccnc1NCc1ccc(F)cc1` [Example 54, (R) 2-(4-Fluoro-benzylamino)-N-[3-(pyrrolidin-2-ylmethoxy)-4-pentafluoroethyl-phenyl]-nicotinamide], for which the pIC50 is greater than 7.30.

For `O=C(Nc1cc(OC[C@H]2CCCN2)cc(C(F)(F)F)c1)c1cccnc1NCc1ccc(F)cc1` [Example 55, (R) 2-(4-Fluoro-benzylamino)-N-[3-(pyrrolidin-2-ylmethoxy)-5-trifluoromethyl-phenyl]-nicotinamide], the pIC50 is greater than 7.30. `CC(C)(C)c1ccc(NC(=O)c2cccnc2NCc2ccc(F)cc2)cc1OCC1CCNCC1` [Example 56, N-[4-tert-Butyl-3-(piperidin-4-ylmethoxy)-phenyl]-2-(4-fluoro-benzylamino)-nicotinamide]: the pIC50 is greater than 7.30. Consider `CC(C)(C)c1ccc(NC(=O)c2cccnc2NCc2ccc(F)cc2)cc1OC[C@H]1CCCN1` [Example 57, (R) N-[4-tert-Butyl-3-(pyrrolidin-2-ylmethoxy)-phenyl]-2-(4-fluoro-benzylamino)-nicotinamide], for which the pIC50 was greater than 7.30. As to `CC1(C)CNCc2cc(NC(=O)c3cccnc3NCc3ccc(F)cc3)ccc21` [Example 58, N-(4,4-Dimethyl-1,2,3,4-tetrahydro-isoquinolin-7-yl)-2-(4-fluoro-benzylamino)-nicotinamide], the pIC50 is greater than 7.30.

On to `CC1(C)CN(C(=O)CN)c2cc(NC(=O)c3cccnc3NCc3ccc(F)cc3)ccc21` [Example 59, N-[1-(2-Amino-acetyl)-3,3-dimethyl-2,3-dihydro-1H-indol-6-yl]-2-(4-fluoro-benzylamino)-nicotinamide], for which the pIC50 is greater than 7.30. As for `CC1(C)CN(C2CCNCC2)c2cc(NC(=O)c3cccnc3NCc3ccc(F)cc3)ccc21` [Example 60, N-(3,3-Dimethyl-1-piperidin-4-yl-2,3-dihydro-1H-indol-6-yl)-2-(4-fluoro-benzylamino)-nicotinamide], the pIC50 is greater than 7.30. As to `O=C(Nc1cc(OCC2CCNCC2)cc(C(F)(F)F)c1)c1cccnc1NCc1ccc(F)cc1` [Example 61, 2-(4-Fluoro-benzylamino)-N-[3-(piperidin-4-ylmethoxy)-5-trifluoromethyl-phenyl]-nicotinamide], the pIC50 was greater than 7.30. On to `CC1(C)CNc2cc(NC(=O)c3cccnc3NCc3ccc(F)cc3)ccc2O1` [Example 62, N-(2,2-Dimethyl-3,4-dihydro-2H-benzo[1,4]oxazin-6-yl)-2-(4-fluoro-benzylamino)-nicotinamide], for which the pIC50 was greater than 7.30. To `CN1CCC[C@H]1COc1cc(NC(=O)c2cccnc2NCc2ccc(F)cc2)cc(C(F)(F)F)c1` [Example 63, (S)-2-(4-Fluoro-benzylamino)-N-[3-(1-methyl-pyrrolidin-2-ylmethoxy)-5-trifluoromethyl-phenyl]-nicotinamide] belongs greater than 7.30; to `CN1CCC(CN2CC(C)(C)c3ccc(NC(=O)c4cccnc4NCc4ccc(F)cc4)cc32)CC1` [Example 64, N-[3,3-Dimethyl-1-(1-methyl-piperidin-4-ylmethyl)-2,3-dihydro-1H-indol-6-yl]-2-(4-fluoro-benzylamino)-nicotinamide], greater than 7.30; to `CN1CCC(C(C)(C)c2ccc(NC(=O)c3cccnc3NCc3ccc(F)cc3)cc2)CC1` [Example 65, 2-(4-Fluoro-benzylamino)-N-{4-[1-methyl-1-(1-methyl-piperidin-4-yl)-ethyl]-phenyl}-nicotinamide], greater than 7.30.
